Measured values published in PubChem BioAssay (NCI).
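In this assay, cells in 96-well plates receive the compound at five concentrations for 48 hours. Endpoints are linearly interpolated between the surrounding concentrations. The concentration for 50% growth inhibition is given as GI50. TGI: total growth inhibition.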

How the values were obtained:
Experiment in all cases: inhibition of tumour cell growth, NCI panel, 48 h
[1] = tested on: SK-MEL-2 melanoma
[2] = tested on: 786-0 renal
[3] = tested on: HCT-15 colon
[4] = tested on: T-47D breast
[5] = tested on: U251 CNS
[6] = tested on: PC-3 prostate
[7] = tested on: MCF7 breast
[8] = tested on: EKVX NSCLC
[9] = tested on: RXF 393 renal
[10] = tested on: SK-OV-3 ovarian
[11] = tested on: HT29 colon
[12] = tested on: OVCAR-5 ovarian
[13] = tested on: NCI-H23 lung
[14] = tested on: SF-539 CNS
[15] = tested on: TK-10 renal
[16] = tested on: OVCAR-4 ovarian
[17] = tested on: CCRF-CEM leukemia
[18] = tested on: LOX IMVI melanoma
[19] = tested on: SK-MEL-5 melanoma
[20] = tested on: UACC-257 melanoma
[21] = tested on: SF-295 CNS
[22] = tested on: A498 renal
[23] = tested on: KM12 colon
[24] = tested on: HOP-62 NSCLC
[25] = tested on: M14 melanoma
[26] = tested on: HS 578T breast
[27] = tested on: MOLT-4 leukemia
[28] = tested on: SNB-75 CNS
[29] = tested on: BT-549 breast
[30] = tested on: UACC-62 melanoma
[31] = tested on: SN12C renal
[32] = tested on: K-562 leukemia
[33] = tested on: NCI-H460 lung
[34] = tested on: NCI/ADR-RES ovarian
[35] = tested on: ACHN renal
[36] = tested on: SF-268 CNS
[37] = tested on: NCI-H522 lung
[38] = tested on: HOP-92 NSCLC
[39] = tested on: MDA-MB-231 breast
[40] = tested on: SK-MEL-28 melanoma
[41] = tested on: HCC-2998 colon
[42] = tested on: OVCAR-3 ovarian
[43] = tested on: MALME-3M melanoma
[44] = tested on: UO-31 renal
[45] = tested on: OVCAR-8 ovarian
[46] = tested on: SR leukemia
[47] = tested on: IGROV1 ovarian
[48] = tested on: DU-145 prostate
[49] = tested on: COLO 205 colon
[50] = tested on: CAKI-1 renal
[51] = tested on: RPMI-8226 leukemia
[52] = tested on: HL-60(TB) leukemia
[53] = tested on: SNB-19 CNS
[54] = tested on: A549 NSCLC
[55] = tested on: SW-620 colon
[56] = tested on: NCI-H226 lung
[57] = tested on: HCT-116 colon

In the case of `Cc1cc(Cl)cc(NS(=O)(=O)c2ccc(-c3cnc(C4CC4)o3)cc2)c1`, the GI50 [1] is reported as 1050 nM, the TGI [1] is reported as 20900 nM and the GI50 [2] is reported as 1060 nM. It also gave a TGI [2] of 15900 nM, a GI50 [3] of 106 nM and a TGI [3] of 12100 nM. It also gave a GI50 [4] of 379 nM, a TGI [4] of 26200 nM and a GI50 [5] of 436 nM. For the same compound, the TGI [5] was 15600 nM, the GI50 [6] was 205 nM and the TGI [6] was 11900 nM. For the same compound, the GI50 [7] was 70.2 nM, the TGI [7] was 13800 nM and the GI50 [8] was 499 nM. For the same compound, the TGI [8] was 16700 nM, the GI50 [9] was 160 nM and the TGI [9] was 556 nM. It also gave a GI50 [10] of 783 nM, a TGI [10] of 22600 nM and a GI50 [11] of 313 nM. It also gave a TGI [11] of 12100 nM, a GI50 [12] of 565 nM and a TGI [12] of 15500 nM. It also gave a GI50 [13] of 520 nM, a TGI [13] of 13800 nM and a GI50 [14] of 270 nM. For the same compound, the TGI [14] was 3200 nM, the GI50 [15] was 6220 nM and the TGI [15] was 23000 nM. The GI50 [16] was 1070 nM, the TGI [16] was 19800 nM and the GI50 [17] was 172 nM. It also gave a TGI [17] of 17700 nM, a GI50 [18] of 279 nM and a TGI [18] of 11100 nM. It also gave a GI50 [19] of 322 nM, a TGI [19] of 6980 nM and a GI50 [20] of 3180 nM. The TGI [20] was 20800 nM, the GI50 [21] was 146 nM and the TGI [21] was 11000 nM. The GI50 [22] was 72.6 nM, the TGI [22] was 1280 nM and the GI50 [23] was 303 nM. The TGI [23] was 13300 nM, the GI50 [24] was 376 nM and the TGI [24] was 16400 nM. For the same compound, the GI50 [25] was 351 nM, the TGI [25] was 14200 nM and the GI50 [26] was 300 nM. For the same compound, the TGI [26] was 14100 nM, the GI50 [27] was 451 nM and the TGI [27] was 31100 nM. For the same compound, the GI50 [28] was 128 nM, the TGI [28] was 1700 nM and the GI50 [29] was 1630 nM. The TGI [29] was 16400 nM, the GI50 [30] was 174 nM and the TGI [30] was 12000 nM. It also gave a GI50 [31] of 986 nM, a TGI [31] of 13900 nM and a GI50 [32] of 51 nM. It also gave a TGI [32] of over 33200 nM, a GI50 [33] of 264 nM and a TGI [33] of 7220 nM. The GI50 [34] was 161 nM, the TGI [34] was 8910 nM and the GI50 [35] was 758 nM. It also gave a TGI [35] of 14100 nM, a GI50 [36] of 1270 nM and a TGI [36] of 16500 nM. It also gave a GI50 [37] of 465 nM, a TGI [37] of 14300 nM and a GI50 [38] of 151 nM. The TGI [38] was 4280 nM, the GI50 [39] was 656 nM and the TGI [39] was 14500 nM. The GI50 [40] was 1280 nM, the TGI [40] was 19500 nM and the GI50 [41] was 745 nM. The TGI [41] was 12600 nM, the GI50 [42] was 122 nM and the TGI [42] was 3440 nM. The GI50 [43] was 712 nM, the TGI [43] was 22200 nM and the GI50 [44] was 798 nM. The TGI [44] was 14800 nM, the GI50 [45] was 716 nM and the TGI [45] was 18000 nM. It also gave a GI50 [46] of 46.5 nM, a TGI [46] of 19100 nM and a GI50 [47] of 331 nM. It also gave a TGI [47] of 13500 nM, a GI50 [48] of 374 nM and a TGI [48] of 15100 nM. The GI50 [49] was 322 nM, the TGI [49] was 2710 nM and the GI50 [50] was 125 nM. For the same compound, the TGI [50] was 14500 nM, the GI50 [51] was 232 nM and the TGI [51] was 4750 nM. The GI50 [52] was 156 nM, the TGI [52] was 2570 nM and the GI50 [53] was 412 nM. The TGI [53] was 15600 nM, the GI50 [54] was 565 nM and the TGI [54] was 16600 nM. The GI50 [55] was 218 nM, the TGI [55] was 15500 nM and the GI50 [56] was 454 nM. For the same compound, the TGI [56] was 9890 nM, the GI50 [57] was 347 nM and the TGI [57] was 11100 nM.
